Assay [1] deals with uterus (positive control tissue) of ovariectomized C57BL/6 mice. In words: Uterine weights to assess dosing (Example 6). The assay is classed as in vivo. As for the experimental part:
Uterine weight was used as a positive control to assess dosing of estrogen agonists. Daily subcutaneous injections of vehicle, estradiol, PPT, or DPN, as well as a combination of ITT with DPN, were administered for ten days at indicated doses to ovariectomized mice. Following euthanasia, the uterus was extracted, then fat, connective tissue, and excess fluid removed in order to obtain the uterine weight, as described. EAE clinical disease severity was compared between treatment groups using the Friedman test; histopathological changes were assessed using 1×4 ANOVAs; uterine weights, proliferative responses and cytokine levels were compared between treatment groups using Student t-test, and time on rotorod was compared between treatment groups using ANOVA.

In assay [2] the test system is C57BL/6 mice with EAE. In words: Rotarod testing of motor performance during EAE. In kind it is in vivo. As for the experimental part:
Motor behavior was tested up to two times per week for each mouse using a rotarod apparatus (Med Associates mc, St. Albans, Vt.). Briefly, animals were placed on a rotating horizontal cylinder for a maximum of 200 seconds. The amount of time the mouse remained walking on the cylinder, without falling, was recorded. Each mouse was tested on a speed of 3-30 rpm and given three trials for any given day. The three trials were averaged to report a single value for an individual mouse, and then averages were calculated for all animals within a given treatment group. The first two trial days, prior to immunization (day 0), served as practice trials.
EAE clinical disease severity was compared between treatment groups using the Friedman test; histopathological changes were assessed using 1×4 ANOVAs; uterine weights, proliferative responses and cytokine levels were compared between treatment groups using Student t-test, and time on rotorod was compared between treatment groups using ANOVA.
(In general: The rotarod test checks motor coordination on a turning rod.)

In the next assay the test system is SJL mice with EAE. In words: PLP 139-151 induced active EAE in SJL mice, relapses. The assay is classed as in vivo.
For assay [3], the system named is spinal cords of mice with EAE. In words: Spinal cord histopathology and immunohistochemistry in EAE (Example 6). In kind it is in vivo. An excerpt:
Mice were deeply anesthetized with isoflurane and perfused transcardially with ice-cold 0.9% saline, followed by 10% formalin. Spinal cord columns were removed and post-fixed overnight in 10% formalin and cryoprotected with 20% sucrose solution in PBS. Spinal cords were removed from the column and cut in 3 parts (cervical, thoracic and lumbar) and embedded in gelatin/sucrose mix. Spinal cord regions in gelatin were further postfixed and stored in 20% sucrose. Free-floating sections (25 μm thick) were cut coronally with a sliding microtome and collected serially in PBS.
Serial sections were mounted on slides and stained with Hematoxylin & eosin (H&E) or Nissl. Consecutive sections were also examined by immunohistochemistry. Briefly, 25 μm free-floating sections were permeabilized in 0.3% Triton X-100 in PBS and blocked with 10% normal goat serum. White matter immunostaining was enhanced by treating sections with 95% ethanol/5% acetic acid for 15 minutes prior to permeabilization and blocking. To detect specific cell types and structures, sections were pre-incubated with primary antibodies in PBS solution containing 2% NGS for 2 hours at room temperature, then overnight at […]. The following primary antibodies were used: anti-133 tubulin and anti-neurofilament-NF200 (monoclonal, Chemicon; polyclonal Sigma Biochemical), anti-neuronal specific nuclear protein (NeuN), anti-CD4S (Chemicon), and anti-MW (Chemicon). The second antibody step was performed by labeling with antibodies conjugated to TRITC, FITC and Cy5 (Vector Labs and Chemicon). IgG-control experiments were performed for all primary antibodies, and no staining was observed under these conditions. To assess the number of cells, a nuclear stain 4′,6-Diamidino-2-phenylindole, DAPI (2 ng/ml; Molecular Probes) was added for 15 minutes prior to final washes after secondary antibody addition. The sections were mounted on slides, dried and coverslipped in fluoromount G (Fisher Scientific).
To quantify immunostaining results, sections from spinal cord levels T1-T5 were examined, six from each mouse, with n=3 mice per treatment group, for a total of 18 sections per treatment group. Images were captured under microscope (4×, 10× or 40×) using the DP70 Image software and a DP70 camera (both from Olympus). Identical tight intensity and exposure times were applied to all photographs from each experimental set. Images from the same areas of spinal cord were compared (TI-IS) and were acquired separately from delineated whole gray and white mailer regions. The middle region of the ventral horn was the focus for gray matter analysis, while the area lateral to the ventral horn was the focus for white matter analysis. Six gray matter and six white matter pictures were collected from the two sides of TI-IS sections (100 jim apart) from three animals in each treatment group. All images were converted to grayscale and then analyzed by density measurement with ImageJ vi 0.29 (the Windows version of NIH Image), downloaded from rsb.info.nih.gov/ij. A fixed threshold range of 0 to 160 was chosen to highlight the staining signals in normal spinal cord sections, and the total area within this range was measured, averaged, and compared.
Increase in total number of infiltrating cells after induction of EAE was measured by density measurements of DAPI nuclei in the whole white matter. Neuronal cells were quantified by counting the NeuN^+/β3-tubulin^+/DAPI^+ cells per mm2 in the whole gray matter. Both white and gray matter assessments occurred in the TI-IS spinal cord sections. Laser scanning confocal microscopic scans at 40× were performed on Mac 3^+/β3-tubulin^+ immunostained spinal cord sections corresponding to levels 11-15 ventral horn. […]

Assay [4] deals with MOG 35-55 stimulated splenocytes. In words: Autoantigen specific cytokine production by splenocytes in C57BL/6 EAE (Example 6). The assay is classed as in vivo, mice. Conditions: vs vehicle. As for the experimental part:
(§1) Spleens were harvested either after deep anesthesia prior to perfusion or after euthanasia. Splenocytes were stimulated with the indicated autoantigens at […], and proliferation assessed using standard H3 incorporation assays, as described. Supernatants were collected after 48 and 72 hours, and levels of TNF-i, IFN-γ, 11,6, and 1 L5 were determined by cytometric bead array (BD Biosciences), as described. EAE clinical disease severity was compared between treatment groups using the Friedman test; histopathological changes were assessed using 1×4 ANOVAs; uterine weights, proliferative responses and cytokine levels were compared between treatment groups using Student t-test, and time on rotorod was compared between treatment groups using ANOVA.

For assay [5], the system named is C57BL/6 mice with EAE. In words: Clinical severity of MOG 35-55 induced active EAE (Example 6). In kind it is in vivo. Conditions: vs vehicle.
In assay [6] the test system is PLP 139-151 stimulated splenocytes. In words: Splenic immune responses (proliferation, cytokines) in SJL mice with EAE. In kind it is in vivo. Conditions: day 52 after disease induction, vs vehicle. Here is the method: as §1
Assay [7] relates to spinal cords of mice with EAE. In words: Spinal cord histopathology and immunohistochemistry in EAE (Example 5). In kind it is in vivo. The settings on record: acute phase of EAE. From the text: Mice were deeply anesthetized with isoflurane and perfused transcardially with ice-cold 0.9% saline, followed by 10% formalin. Spinal cord columns were removed and postfixed overnight in 10% formalin and cryoprotected with 20% sucrose solution, in PBS. Spinal cords were removed from the column, cut in three parts (cervical, thoracic, and lumbar), and embedded in gelatin/sucrose mix. Spinal cord regions in gelatin were further postfixed and stored in 20% sucrose. Free-floating sections (25 μm thick) were cut coronally with a sliding microtome and collected serially in PBS. […]
To quantify immunostaining results, sections from spinal cord levels T1-T5 were examined, six from each mouse, with n=3 mice per treatment group, for a total of 18 sections per treatment group. […] All images were converted to grayscale and then analyzed by density measurement with ImageJ version 1.29 (the Windows version of NIH Image), downloaded from rsb.info.nih.gov/ij. A fixed threshold range of 0-160 was chosen to highlight the staining signals in normal spinal cord sections, and the total area within this range was measured, averaged, and compared.
Increase in total number of infiltrating cells after induction of EAE was measured by density measurements of DAPI+nuclei in the whole white matter. Neuronal cells were quantified by counting the NeuN+/β3-tubulin+/DAPI+ cells per square millimeter in the whole gray matter. […]

The subject of assay [8] is post-partum patient with relapsing remitting multiple sclerosis. In words: Case of post-partum relapsing remitting MS patient. The assay is classed as in vivo, human. Here is the method: A patient was diagnosed as having relapsing remitting multiple sclerosis. Following the delivery of their first child (now […]), the patient was treated only with Copaxone and relapsed at 6 weeks. Following the delivery of their second child (now […]), the patient was again treated with Copaxone alone and again relapsed, this time at 4.5 months. Following a subsequent pregnancy, the patient was treated with 8 mg estriol/day in an attempt to prevent their post partum relapses.
Following the birth of the patient's third child (now 6 months), the patient resumed treatment with Copaxone as before. However, on day 10 post-partum they began taking estriol 8 mg/daily in an oral dosage form. […] Since monthly brain MRIs with gadolinium to detect enhancing MS lesions are more sensitive for inflammatory disease activity than relapses, the patient underwent serial monthly MRIs at post partum months 4, 5, and 6.
The patient doubled the progesterone minipill for 2 weeks to stabilize the endometrium. Otherwise no adverse events have been reported.

The mark [9] stands for this setting: day 19 and day 40, vs normal mice.
The mark [10] stands for this setting: early (day 19) and later (day 40) stages of EAE.

The values that follow come from patent US10610535B2 (The Regents of the University of California, priority 2005, dated 2020).

As to `N#CC(Cc1ccc(O)cc1)c1ccc(O)cc1` (centres unmarked) [DPN, Diarylpropionitrile], the “PPT 3.3 mg/kg/day mediated increase in uterine weight” value in assay [1] (DPN 8 mg/kg/day in combination with PPT, 10 days) was “antagonized”. Moreover, the Uterine weight result in [1] (DPN alone 8 mg/kg/day s.c. for 10 days, ovariectomized C57BL/6) is on record as “no effect on uterine weight”. The “Mean time on rotarod (motor function)” value with C57BL/6 mice with EAE [2] (ERβ KO mice with EAE, later phase of disease) is on record as “no improvement was observed”; in the assay on C57BL/6 mice with EAE [2] (ovariectomized wild type C57BL/6 with EAE, after day 30), “significant recovery of motor function”. The “Relapses (mice with relapse / mice)” value in the assay on SJL mice with EAE (DPN treated SJL mice, relapses between days 36 and 52, vehicle 10/13) is 5/13. The “Relapses (percent of mice)” value in the assay on SJL mice with EAE (DPN treated SJL mice, relapses between days 36 and 52, vehicle 77%) amounted to 33%. Also, in the assay with SJL mice with EAE (DPN vs vehicle, SJL mice), the “Incidence, day of onset, peak clinical scores” value was “no difference”. The “White matter cell density, myelin density, axonal numbers and NeuN+ cells” value in [3] (ERβ knock out mice with EAE, day 38-40) was “does not prevent white and gray matter pathology”. In addition, in assay [3] (setting [9]), the “MBP immunoreactivity in dorsal column (myelin density)” value was “no significant decreases”. The “Neurofilament stained axon numbers in white matter” value in assay [3] (setting [9]) is “no significant reduction in axon numbers”. The “NeuN+ cell numbers in gray matter” value in assay [3] (early (day 19) and later (day 40) time points, vs healthy controls) was “fewer, but not significantly different from those in healthy controls”. In addition, in assay [3] (early and later time points, vs vehicle treated EAE), the “CD45 staining in white matter” value was “did not have reduced CD45 staining”. Also, the “Inflammation, white matter cell density (DAPI+ cells) of thoracic cord” value in assay [3] (early stage of EAE (day 19), vs vehicle treated EAE) is on record as “not significantly different from those in vehicle treated”; in [3] (later time point (day 40), vs vehicle), “no different from that in vehicle treated”. Besides, the “Anti-inflammatory cytokine IL5” value in assay [4] (setting [10]) was “not statistically different from vehicle treatment”. Also, the “Levels of proinflammatory cytokines (TNFα, IFNγ, and IL6)” value in [4] (setting [10]) is “not statistically different from vehicle treatment”. The IL10 production result in assay [4] was “No differences”. Besides, the “Clinical scores (EAE 0-5 scale)” value with C57BL/6 mice with EAE [5] (DPN 8 mg/kg/day s.c., ovariectomized C57BL/6, early in disease (up to day 20 after induction)) is recorded as “not significantly different”; with C57BL/6 mice with EAE [5] (DPN 8 mg/kg/day s.c., ovariectomized C57BL/6, later during EAE (following day 30 after induction)), “significantly improved”; with C57BL/6 mice with EAE [5] (DPN, ovariectomized ERβ KO C57BL/6 mice) it was “no different”. The “Cytokine (TNFα, IFNγ) production during the PLP 139-151 specific response” value in [6] is “No significant differences”. In assay [6], the “Proliferation during the PLP 139-151 specific response” value was “No significant differences”.

On to `CCCc1c(-c2ccc(O)cc2)nn(-c2ccc(O)cc2)c1-c1ccc(O)cc1` [PPT, propyl pyrazole triol], for which, in assay [7], the “Decrease of Mac 3+ cells in gray matter compared with vehicle-treated EAE mice” value is listed as roughly 65%.

As for `C[C@]12CC[C@@H]3c4ccc(O)cc4CC[C@H]3[C@@H]1CC[C@@H]2O` [estradiol, 17β-estradiol], the “Decrease of Mac 3+ cells in gray matter compared with vehicle-treated EAE mice” value in assay [7] is given as roughly 65%.

For the molecule “glatiramer acetate copolymer-1 [Copaxone]”, the “Time to post-partum relapse” value in assay [8] (Copaxone alone, after delivery of second child) turned out to be 4.5 months; in [8] (Copaxone only, after delivery of first child), 6 weeks.
